Test results from patent publication US20250221968A1, “TREATMENTS AND METHODS FOR INCREASING DOPAMINE” (Oxford University Innovation Limited, priority 2022, published 2025).
Entries after “also recorded” stand apart in the source; their conditions may differ.

Legend:
[1] = target: T1, D2 receptors (Mus musculus, UniProt P61168); experiment: Ex vivo slice voltammetry: DA release after light activation of ChIs, 1p vs 3p Estim, ChAT-Cre:Ai32 slices, D2 antagonism; type: cell-based; conditions: DLS, L-741,626 1 μM
T1 construct: striatal slices from ChAT-Cre: Ai32 mice; from tissue; host or cells: acute striatal slices (DLS) of ChAT-Cre:Ai32 mice
Excerpt: (§1) Stimulations were timed to avoid FCV scans.

[2] = tested on: muscarinic receptors; conditions: DLS, atropine 2 μM
Method: For fast-scan cyclic voltammetry (FCV) in acute coronal slices, animals were anaesthetised with isoflurane. Brains were quickly removed into ice-cold, high Mg^2+ cutting solution containing in mM: 85 NaCl, 25 NaHCO3, 2.5 KCl, 1.25 NaH2PO4, 0.5 CaCl2, 7 MgCl2, 10 glucose, 65 sucrose. Brains were then blocked, and 300 μm coronal slices were cut on a vibratome (Leica VT1200S) between +1.5 to +0.5 mm from bregma containing caudate-putamen and nucleus accumbens. Slices recovered at 32° C. for 30-40 min after dissection and were subsequently kept at room temperature. Slices were maintained and recorded in artificial cerebrospinal fluid (aCSF) containing in mM: 130 NaCl, 25 NaHCO3, 2.5 KCl, 1.25 NaH2PO4, 2.5 CaCl2), 2 MgCl2, 10 glucose. The aCSF was saturated with 95% O2/5% CO2; recordings were made at 32-33° C. Extracellular DA concentration ([DA]o) was measured using FCV with 7 μm-diameter carbon fiber microelectrodes (CFMs; tip length 50-100 μm) and a Millar voltammeter (Julian Millar, Barts and the London School of Medicine and Dentistry) as previously^55. […]
The Inventors tested whether the DA release dynamics at the timepoints of ChI rebound activity are consistent with nAChR desensitisation. […] As a potential readout of the timecourse of nAChR desensitisation, the Inventors explored how the difference in [DA]o evoked by triplet versus single pulses (100 Hz) varied over time. […]

[3] = tested on: nAChRs; experiment: Ex vivo slice voltammetry (FCV): [DA]o evoked by light pulse after prior electrical stimulus, striatal slices from DAT-Cre mice; type: cell-based, mouse; conditions: DHβE 1 μM
Excerpt: as §1
The Inventors also explored whether prior ChI activation limits subsequent DA release when driven by targeted optogenetic activation of DA axons (DADA). The Inventors used an electrical stimulus to initially drive DA release (DADA+DAChI) and then assessed DADA driven by a subsequent light activation of ChR2-expressing DA axons in ex vivo striatal slices from DAT-Cre mice (FIG. 2a,b). […] For inter-stimulus intervals <100 ms (DLS) or <50 ms (NAcc), this depression was relieved when a nAChR antagonist was present (DHβE, 1 μM).

[4] = tested on: nAChRs; experiment: Calcium imaging of GCaMP6f in DA axons in DLS, ex vivo slices of DAT-Cre:Ai95D mice; type: cell-based, mouse; conditions: DHβE 1 μM
Method: As in a previous study^21, an Olympus BX51WI microscope equipped with a OptoLED Lite system (CAIRN Research), Prime Scientific CMOS (sCMOS) Camera (Teledyne Photometrics), and a ×40/0.8 NA water-objective (Olympus UK) was used for wide-field fluorescence imaging of GCaMP6f in dopaminergic axons in DLS in ex vivo slices in response to single and trains (4 pulses, 100 Hz) of electrical stimulus pulses. Images were acquired at 16.6 Hz frame rate every 2.5 min using Micro-Manager 1.4, with stimulation and recording synchronised using custom-written procedures in Igor Pro 6 (WaveMetrics) and an ITC-18 A/D board (Instrutech). Image files were analysed with Matlab R2019b and Fiji 1.5. The inventors extracted fluorescence intensity from the region of interest (ROI) and from an equal background area where there was no GCaMP6f expression (on the stimulating electrode). After background subtraction, the Ca^2+ transients were bleach-corrected by fitting an exponential curve function through both the baseline (2 s prior to stimulation) and the last 1 s in a 7.2 s recording window. The order of single and train stimulations was alternated and equally distributed and data were collected in duplicate before and after a change in extracellular experimental condition. Data are expressed as ΔF/F where F is the fitted curve. […]

[5] = tested on: nAChRs; experiment: 6-OHDA lesioning and cylinder test (single paw reaching), mouse model of PD; type: in vivo; conditions: unilateral 6-OHDA lesioned mice, 10 μg into lesioned striatum, 10 min after injection
Method: 6-OHDA Lesioning and Reaching Task: On the lesioning day, 6-hydroxydopamine was injected into the right dorsolateral striatum through the pre-implanted cannula (1 μl of a 0.9% saline solution containing 4 μg/μL 6-OHDA (Sigma-Aldrich) and 0.02% acetic acid) over 5 min. On the testing day, mecamylamine (10 μg/side) was injected via the cannula in a volume of 0.5 μl over 1 min into the lesioned (right) striatum. Animals were sacrificed immediately after behavioural testing. The 6-OHDA-induced loss of dopamine axons was confirmed by the ˜50% decrease of fluorescence intensity of TH staining in slices compared to the contralateral DLS which was measured with ImageJ (1.52p). The anterior commissure used as 0% background fluorescence. Animals were briefly sedated with isoflurane during the injection of 6-OHDA and mecamylamine.
A cylinder test was performed before and 10 min after 6-OHDA injection to confirm an acute effect of 6-OHDA. After one day of […], the test was performed again before and 10 min after mecamylamine injection. No habituation of the mice to the cylinder was conducted. During the test, mice were individually placed into a glass cylinder (diameter 19 cm, height 25 cm). […] Only wall touches with a single paw, ipsilateral or contralateral forelimb, were counted in the analysis. Data are contralateral touches expressed as a percentage of total number of single-paw touches. […]

[6] = tested on: nAChRs; experiment: Conditioned place preference testing after bilateral dorsal striatal infusion; type: in vivo, mouse; conditions: freely moving mice, 10 μg/side bilateral dorsal striatum, two days of conditioning
Excerpt: Cannulae Placements: Male C57BL/6N mice (42-50 days) were anesthetised with isoflurane (5% induction; 1.5-2% maintenance) and placed on a stereotaxic frame for surgery. Bilateral injection needles (O.D. 0.21 mm, I.D. 0.11 mm, RWD, China) with the guide cannula (O.D. 0.41 mm, I.D. 0.25 mm, RWD, China) were implanted to the dorsal striatum either vertically or at a small angle from the vertical, with the tip of each cannula aimed at coordinates: AP+1.0 mm; ML+/−1.6 mm to bregma; DV-2.4 mm (from dura). Mice recovered for three days after surgery.
Conditioned Place Preference Testing: In CPP experiments, mice were placed in a 40 cm×40 cm transparent plexiglass arena which was divided into two equal chambers separated by doorway. The chambers were decorated with either horizontal or vertical stripes. The movement of animals was recorded and analysed with Smart V3.0 tracking software (Panlab, Spain).
On day 1, mice were allowed to freely shuttle between two chambers to assess place preference at baseline, expressed as % time spent in right chamber. […] On day 4, the post-conditioning chamber preference was calculated as the % of time spent in the right mecamylamine-associated chamber compared to on pre-conditioning day 1. […]

[7] = tested on: nAChRs; experiment: Anesthetised in vivo voltammetry in DLS; set-up: species or system mouse; conditions: urethane-anesthetised wild-type mice, mecamylamine 2 mg/kg i.p. per FIG. 4 legend
Method: Wild type mice were anesthetised with urethane (1.4-1.9 g/kg, i.p.; Biolab), supplemented with additional urethane (0.2 g/kg) every 1-2 hr as required. All wounds and pressure points were infiltrated with bupivacaine (0.5%). Upon reaching surgical anaesthesia, the head was fixed in a stereotaxic frame (Kopf, USA). Core temperature was maintained at 35-36° C. using a homeothermic blanket and monitored via a rectal probe (TR-100, Fine Science Tools). A round piece of skull overlying the left hemisphere was removed to target the DLS (AP+1.0 mm, ML 1.6 mm, DV 2.2 mm to Bregma). A stimulating and recording array consisting of a carbon-fiber microelectrode and a bipolar stimulating electrode (MS303/3-A/SPC, P1 Technology) was positioned in the DLS. The Ag/AgCl reference electrode was implanted in another part of the forebrain. […] The location of the tip of FCV electrode was confirmed histologically.
For striatal electrical stimulation, 0.65 mA current (200 μs) was delivered through a bipolar stimulating electrode (0.005 inch, MS303/3-A/SPC, P1 Technologies). The stimulating electrode tips were separated by ˜500 μm and were glued to the FCV recording electrode to fix the tip of the FCV electrode between the two stimulating poles. […]

T1 sequence (P61168 whole entry): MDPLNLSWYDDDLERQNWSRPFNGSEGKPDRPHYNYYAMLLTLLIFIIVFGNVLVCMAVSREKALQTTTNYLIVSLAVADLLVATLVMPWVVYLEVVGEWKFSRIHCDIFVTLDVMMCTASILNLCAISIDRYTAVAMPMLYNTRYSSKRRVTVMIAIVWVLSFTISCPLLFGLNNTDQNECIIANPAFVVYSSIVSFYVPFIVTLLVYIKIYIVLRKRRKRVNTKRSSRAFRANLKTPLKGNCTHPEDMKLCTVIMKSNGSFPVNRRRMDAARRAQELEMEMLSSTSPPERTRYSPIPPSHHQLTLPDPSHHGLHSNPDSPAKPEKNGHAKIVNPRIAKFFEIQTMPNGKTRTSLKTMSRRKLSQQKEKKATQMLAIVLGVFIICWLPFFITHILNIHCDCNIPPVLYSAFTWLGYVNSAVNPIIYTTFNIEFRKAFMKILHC

For `OC1(c2ccc(Cl)cc2)CCN(Cc2c[nH]c3ccccc23)CC1` [L-741,626], the “dynamic DA release response after light activation of ChIs (100-400 ms interval)” value [1] was “persists”.
With `CN1[C@@H]2CC[C@H]1C[C@@H](OC(=O)C(CO)c1ccccc1)C2` (some centres unmarked) [atropine] the “dynamic DA release response after light activation of ChIs (100-400 ms interval)” value [2] was “persists”.
In the case of `CO[C@H]1CC=C2CCN3CCC4=C(CC(=O)OC4)[C@]23C1` [DHβE, Dihydro-β-erythroidine], the “depression of [DA]o evoked by a subsequent light pulse after an electrical stimulus” value ([3]; DLS, inter-stimulus intervals <100 ms) is reported as “relieved”, the “depression of [DA]o evoked by a subsequent light pulse after an electrical stimulus” value ([3]; NAcc, inter-stimulus intervals <50 ms) is reported as “relieved” and the “axonal GCaMP6f fluorescence for a 4-pulse train (100 Hz) compared to a single pulse” value [4] is reported as “markedly greater”.
In the case of `CNC1(C)C2CCC(C2)C1(C)C` (centres unmarked) [mecamylamine], the “motor deficits: contralateral forelimb single-paw touching in cylinder test” value [5] is reported as “reduces deficits; also recorded: remediated these motor deficits”, the “conditioned-place preference for the drug-conditioned chamber” value [6] is reported as “developed a conditioned-place preference” and the “[DA]o evoked by local striatal stimulation with brief electrical pulse trains” value [7] is reported as “significantly increased”.
